# Measured values published in PMC10976173, “Synthesis of 5-Benzylamino and 5-Alkylamino-Substituted Pyrimido[4,5-c]quinoline Derivatives as CSNK2A Inhibitors with Antiviral Activity” (Pharmaceuticals, 2024).
# Like-named read-outs stand apart in the source and are kept apart here.
# Tests used:
# [1] = test system: DiscoverX KinomeSCAN assay panel of >400 human kinases; conditions: cited from earlier work; for Kinases Inhibited: Number of kinases showing 90% inhibition at 1 µM in DiscoverX KINOMEscan, ref [6]
# [2] = design: method as in PMID 37077385; conditions: Kinetic solubility; ref [6]; cited from earlier work
# [3] = Kinetic solubility in PBS pH 7.4; format: physicochemical; conditions: phosphate-buffered saline, pH 7.4, aqueous buffer, kinetic from dmso stock, PBS pH 7.4, 24 h
# Method: Kinetic solubility assay was conducted using 10 mM DMSO stocks of compounds in phosphate-buffered saline solution (PBS) at pH 7.4 by Analiza, Inc., Cleveland, OH, USA. […] The calculated values were corrected for the background nitrogen in the media and DMSO.
# [4] = test system: Mouse Hepatitis Virus (MHV); experiment: microbe, parasite or virus in culture; format: cell-based; conditions: Murine coronavirus, read-out: MHV IC50
# Method: DBT cells were plated in 96-well plates to be 80% confluent at the start of the assay. Test compounds were diluted to 30 µM in DMEM. […] Molnupiravir (10 µM) was included as a positive control. […] After 1 h, MHV-NLuc was added at an MOI of 0.1 in 50 μL DMEM so that the final concentration of the first dilution of compound was 30 μM (T = 0). After 10 h, the media was aspirated, and the cells were washed with PBS and lysed with passive lysis buffer (Promega) for 20 min at room temperature. Relative light units (RLUs) were measured using a luminometer (Promega; GloMax). Triplicate data were analyzed in GraphPad Prism version 9.5.1 to generate IC50 values (Figure S2).
# CSNK2A (CSNK2A2-NLuc) = target: T1, CSNK2A (CSNK2A2-NLuc) (Homo sapiens, UniProt P19784); experiment: In-cell CSNK2A target engagement by NanoBRET assay; format: cell-based; conditions: for IC50: In-cell target engagement by NanoBRET assay, HEK293 cells
# T1 construct: expressed in transfected cells; host or cells: HEK293
# T1 sequence (P19784 whole entry): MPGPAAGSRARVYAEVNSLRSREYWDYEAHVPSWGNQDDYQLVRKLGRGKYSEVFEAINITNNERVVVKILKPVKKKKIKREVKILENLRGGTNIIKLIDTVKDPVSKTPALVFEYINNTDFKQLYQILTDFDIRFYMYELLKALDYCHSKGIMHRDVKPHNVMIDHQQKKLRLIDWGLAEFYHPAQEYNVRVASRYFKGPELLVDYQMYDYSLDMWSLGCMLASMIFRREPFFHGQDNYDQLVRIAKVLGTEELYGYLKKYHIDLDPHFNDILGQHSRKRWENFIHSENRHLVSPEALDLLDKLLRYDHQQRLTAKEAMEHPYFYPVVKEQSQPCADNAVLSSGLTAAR
# Method: A transfection complex of DNA at 10 µg/mL was created, consisting of 9 µg/mL of carrier DNA (Promega, Madison, WI, USA) and 1 µg/mL of CSNK2A2-NLuc fusion DNA in Opti-MEM without serum (Gibco). FuGENE HD (Promega) was added at 30 µL/mL to form a lipid/DNA complex. The solution was then mixed and incubated at room temperature for 20 min. […] The following day, the media was removed via aspiration and replaced with 85 μL of Opti-MEM without phenol red. A total of 5 μL per well of 20×-NanoBRET Tracer K10 (Promega) at 5 μM in Tracer Dilution Buffer (Promega N291B) was added to all wells, except the “no tracer” control wells. Test compounds (10 mM in DMSO) were diluted 100× in Opti-MEM media to prepare stock solutions and evaluated at eleven concentrations. A total of 10 μL per well of the 10-fold test compound stock solutions (final assay concentration of 0.1% DMSO) was added. […] 96-well plates containing cells with NanoBRET Tracer K10 and test compounds (100 µL total volume per well) were equilibrated (37 °C/5% CO2) for 2 h. The plates were cooled to room temperature for 15 min. […] A total of 50 μL of the 3× substrate/extracellular NL inhibitor were added to each well. The plates were read within 30 min on a GloMax Discover luminometer (Promega) equipped with 450 nm BP filter (donor) and 600 nm LP filter (acceptor) using 0.3 s integration time. Raw milliBRET (mBRET) values were obtained by dividing the acceptor emission values (600 nm) by the donor emission values (450 nm) and multiplying by 1000. […] The data were first normalized and then fit using Sigmoidal, 4PL binding curve in GraphPad Prism version 9.5.1 to determine IC50 values (Figure S1).
# [5] = Inhibition of MHV-NLuc in DBT cells
Structure (SMILES),Kinases Inhibited [1],Aqueous Solubility [2] [µM],solubility at 24 h [3] [µM],"IC50 [4, 5] [µM]",melting point [°C],IC50 (CSNK2A (CSNK2A2-NLuc)) [µM],other results
O=C(O)c1ccc2c(c1)nc(Nc1ccc3ccccc3c1)c1ncncc12 [Analog-11],10/403,54,–,–,–,–,–
"O=C(O)c1ccc2c(c1)nc(NCC1CCCCC1)c1ncncc12 [Compound 4t, 5-((cyclohexylmethyl)amino)pyrimido[4,5-c]quinoline-8-carboxylic acid]",–,–,180,13,281 to 283,0.14,Designation (CSNK2A (CSNK2A2-NLuc); active / inactive analogs with 10-fold differences in IC50): Active
"O=C(O)c1ccc2c(c1)nc(NCC1CCCCCC1)c1ncncc12 [Compound 4u, 5-((cycloheptylmethyl)amino)pyrimido[4,5-c]quinoline-8-carboxylic acid]",–,–,150,18,280 to 283,0.2,–
"O=C(O)c1ccc2c(c1)nc(NCC13CCC(CC1)C3)c1ncncc12 [Compound 4w, 5-((bicyclo[2.2.1]heptan-1-ylmethyl)amino)pyrimido[4,5-c]quinoline-8-carboxylic acid]",–,–,190,17,291 to 292,0.17,–
"O=C(O)c1ccc2c(c1)nc(NCC13CC4CC(CC(C4)C1)C3)c1ncncc12 [Compound 4x, 5-((((3r,5r,7r)-adamantan-1-yl)methyl)amino)pyrimido[4,5-c]quinoline-8-carboxylic acid]",–,–,~10,> 30,292 to 296,0.14,–
CCC(=O)Nc1cc(Nc2cc(NC3CC3)n3ncc(C#N)c3n2)ccc1C [SGC-CK2-1],3/403,–,–,–,–,–,"inhibition of CSNK2A1, CSNK2A2, and STK17B ([1]; at 1 µM, only these kinases of the panel, ref [3]): 90%"
"O=C(O)c1ccc2c(c1)nc(NCc1ccccc1)c1ncncc12 [SGC-CK2-2, reference compound]",–,210,–,–,–,–,IC50 [4]: 15 µM
"O=C(O)c1ccc2c(c1)nc(Nc1cccc(Cl)c1)c1ccncc12 [silmitasertib, 5-(3-chlorophenylamino)benzo[c][2,6]naphthyridine-8-carboxylic acid]",28/403,280,–,–,–,–,–
